Measurements reported in patent US20230277569A1, “Compositions and Methods for Treating, Ameliorating and/or Preventing Cancer and Kits for the Same” (priority 2022, published 2023).
Values joined by “and” are separate entries in the source; they are usually repeats but may differ in a detail not shown here. Equal values may be shown once. Read-outs that look alike come from different tables or passages of the source.

Experiments:
[1] = Gamitrinib pharmacokinetics (PK) in rat plasma, single IV dose; assay type: in vivo, Sprague-Dawley rats; details: for 17-AG plasma concentration after IV Gamitrinib: Gamitrinib 5 mg/kg IV
Description: Sprague-Dawley rats (n=3) were administered a single intravenous (IV) dose of 1 mL Gamitrinib (5 mg/kg) formulated as described above without added microfluidization. Blood samples were collected via lateral tail vein using K2EDTA as an anticoagulant at 0.083, 0.25, 0.5, 1, 2, 4 and 24 h post-dose, chilled on ice and centrifuged at 5000 rpm for 10 min. Aliquots (0.2 mL) of each plasma sample were stored frozen at −20° C. For analysis, 50 μL aliquots of study samples were mixed with 50 μL of ACN/H2O (50:50), extracted by protein precipitation using ACN containing the internal standard Gamitrinib-d15 (100 ng/mL), and aliquots of supernatant were mixed with deionized water for Gamitrinib determination. Batch samples under analysis included a calibration curve, a matrix blank (blank rat plasma), a reagent blank, a control zero (blank rat plasma spiked with internal standard), and duplicate QC samples at 3 concentration levels (low, medium, and high) in addition to the study samples. Within each batch, the study samples were bracketed by calibration standards or QC samples. The lowest calibration standard served to evaluate system suitability at the beginning of each batch. […] Overall, the concentration of Gamitrinib was measured in 21 rat plasma samples in 1 analytical batch using LC-MS/MS data acquisition on a Shimadzu Nexera LC system coupled with an AB Sciex Triple Quad 5500 mass spectrometer. Chromatograms were integrated using Analyst 1.6.2 software. A weighted (1/x^2, x=concentration) linear regression was used to generate the calibration curve for Gamitrinib. […] The mean, standard deviation, precision, accuracy, and assay variability were calculated using Microsoft Excel.

[2] = target: CYP2B6 (Homo sapiens, UniProt P20813); assay: CYP inhibition in liver microsomes, CYP2B6; assay type: in vitro ADME; details: human liver microsomes 0.1 mg/mL
Description: After addition of prototypical CYP substrates in 250 μL, samples were incubated for 10 min (CYP1A2, CYP2B6, CYP2C9, and CYP3A4) or 20 min (CYP2C8) at 37° C. in 5% CO2. […] Samples were analyzed for metabolite formation by LC-MS/MS. The results were expressed using the peak area ratio of analyte to internal standard, based on the calibration curves.
where Range=fitted uninhibited value, s=slope factor, x=inhibitor concentration, y=% control activity.

[3] = target: Human Kv4.3/KChIP2 (Homo sapiens, UniProt Q9UK17); assay: Ion channel screening, Kv4.3/KChIP2; assay type: cell-based; details: n=13, read-out: inhibition of Kv4.3/KChIP2 currents
[4] = Toxicity in beagle dogs, IV infusion for 36 d; assay type: in vivo; details: beagle, dog, in vivo, iv, dogs; for AUC(0-t): read-out: AUC0-24
Description: Eighteen male and female (5-6 mo old) purebred beagle dogs (Cumberland, Va.) were acclimated for 47 d (20 to 26° C., relative humidity 30-70%, 10 or greater air changes/h, and a 12-h light/dark cycle) prior to study initiation. Animals were given water ad libitum and Certified Canine Diet #5007 (PMI Nutrition International Certified LabDiet®) for 4 to 5 h each day. At study initiation, animal body weights ranged from 8.6 to 11.5 kg for males and 6.0 to 9.4 kg for females. At least 1 week prior to initiation of dosing, animals were fasted overnight, anesthetized, and a catheter attached to a subcutaneous vascular access port was surgically implanted into a jugular vein. Animals were acclimated to infusion jackets prior to catheter implantation surgery. Animals were infused with sterile saline at a dose rate of 5 mL/h when the vascular access ports were accessed and when animals were connected to the infusion system (except when dosed with the test or vehicle control article). The patency of each catheter was checked as needed. Prednisolone tablets were administered orally at 2 mg/kg the night prior to dosing. Diphenhydramine (5 mg/kg; IM injection 0.1 mL/kg, 50 mg/mL) was administered prior to dosing and post the start of infusion (d 1 only). Male and female dogs received dose levels of Gamitrinib of 1.25, 3.33 and 6.25 mg/kg/dose formulated as indicated above during a 1 h infusion on d 1, 8, 11, 15, 18, 22, 25, 29, 32, and 36 at a volume of 2 mL/kg. The vehicle control was as above. […] Dosing was stopped, and 23 of 24 animals were administered additional diphenhydramine, 11 were administered Flunixin meglumine and buprenorphine, and 6 were administered acepromazine. Symptoms subsided in all animals after completion of these interventions. As a result of these observations, the polysorbate levels, which were increased from 0.025% (w/v) to 0.125% (w/v) to minimize precipitation, were returned to the original concentrations; 2 mg/kg prednisone was administered orally the night prior to dosing; and the diphenhydramine pretreatment dose was updated to 5 mg/kg 15 to 30 min prior to dosing. Detailed observations were conducted for each animal up to seven times during the predose phase, prior to dosing on d 1, 8, 15, 22, 29, and 36 of the dosing phase, and on d 1, 7, and 14 of the recovery phase. Blood samples (1 mL) were collected via the cephalic vein 5, 15, and 30 min and 1, 4, 8, and 24 h post the end of infusion on d 8 and 36 of the dosing phase. Formalin-fixed and paraffin-embedded tissue samples collected at the end of the study (d 39) were processed for histologic examination.

[5] = Stability in human plasma; assay type: in vitro ADME
[6] = system: tumor; details: cited from earlier work
[7] = 5 mg/kg IV, individual animals Rat 1-3
[8] = 3.33 mg/kg/dose (NOAEL), d 36 of dosing, both sexes
[9] = 6.25 mg/kg/dose (HNSTD), d 36, both sexes

CYP2B6, sequence (P20813 whole entry): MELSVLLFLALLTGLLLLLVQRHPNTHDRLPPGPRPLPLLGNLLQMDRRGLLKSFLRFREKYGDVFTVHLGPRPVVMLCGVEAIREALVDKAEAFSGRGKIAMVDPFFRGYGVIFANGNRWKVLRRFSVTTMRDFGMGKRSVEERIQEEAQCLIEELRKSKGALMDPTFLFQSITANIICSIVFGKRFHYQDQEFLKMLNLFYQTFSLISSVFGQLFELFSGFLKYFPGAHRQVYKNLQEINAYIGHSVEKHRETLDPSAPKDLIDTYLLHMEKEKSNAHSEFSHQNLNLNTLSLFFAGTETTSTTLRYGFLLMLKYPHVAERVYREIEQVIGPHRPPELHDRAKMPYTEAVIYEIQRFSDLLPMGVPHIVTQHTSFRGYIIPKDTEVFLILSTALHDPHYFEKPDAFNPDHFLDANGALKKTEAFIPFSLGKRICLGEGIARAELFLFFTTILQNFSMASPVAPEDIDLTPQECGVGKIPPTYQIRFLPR
Human Kv4.3/KChIP2, sequence (Q9UK17 whole entry, the tested form may be a part): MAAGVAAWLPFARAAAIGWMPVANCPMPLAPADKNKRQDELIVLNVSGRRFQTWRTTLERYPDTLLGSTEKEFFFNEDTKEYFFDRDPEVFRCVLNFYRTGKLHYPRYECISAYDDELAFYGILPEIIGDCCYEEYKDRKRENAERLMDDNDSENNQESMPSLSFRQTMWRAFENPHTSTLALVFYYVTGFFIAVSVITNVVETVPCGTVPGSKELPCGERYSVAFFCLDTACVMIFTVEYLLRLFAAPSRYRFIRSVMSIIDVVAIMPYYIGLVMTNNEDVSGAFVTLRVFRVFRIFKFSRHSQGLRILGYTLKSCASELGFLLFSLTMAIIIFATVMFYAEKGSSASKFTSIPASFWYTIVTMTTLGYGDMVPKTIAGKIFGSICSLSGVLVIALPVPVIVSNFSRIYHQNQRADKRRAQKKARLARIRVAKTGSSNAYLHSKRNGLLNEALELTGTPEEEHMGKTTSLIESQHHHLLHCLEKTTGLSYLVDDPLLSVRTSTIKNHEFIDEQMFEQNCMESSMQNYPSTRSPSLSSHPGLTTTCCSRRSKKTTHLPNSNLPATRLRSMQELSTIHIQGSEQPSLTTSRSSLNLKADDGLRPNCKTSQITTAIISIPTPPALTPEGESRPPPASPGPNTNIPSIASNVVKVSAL
Human Kv4.3/KChIP2, sequence (Q9NS61 whole entry partner, the tested form may be a part): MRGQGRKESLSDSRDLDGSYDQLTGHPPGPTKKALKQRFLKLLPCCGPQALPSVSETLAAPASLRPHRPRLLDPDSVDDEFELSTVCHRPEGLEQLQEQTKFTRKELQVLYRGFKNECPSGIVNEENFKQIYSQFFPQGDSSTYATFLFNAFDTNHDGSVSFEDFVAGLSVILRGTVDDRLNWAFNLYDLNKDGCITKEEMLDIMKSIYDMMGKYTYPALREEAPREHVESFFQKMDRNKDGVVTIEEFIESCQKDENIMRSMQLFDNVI

CO[C@H]1/C=C\C=C(/C)C(=O)NC2=CC(=O)C(NCCCCCC[P+](c3ccccc3)(c3ccccc3)c3ccccc3)=C(C[C@@H](C)C[C@H](OC)[C@H](O)[C@@H](C)/C=C(\C)[C@@H]1OC(N)=O)C2=O [Gamitrinib, 17-Demethoxy-17-((6-(triphenylphosphonio)hexyl)amino)geldanamycin]
t1/2 ([1]; 5 mg/kg IV, Sprague-Dawley rats, individual animals Rat 1-3): 11.107 h and 14.022 h | t1/2 (terminal phase half-life) ([1]; 5 mg/kg IV, Sprague-Dawley rats, mean, n=3): 12.25 ± 1.55 h | Gamitrinib plasma concentration ([1]; 5 mg/kg IV, 5 min, animals 1-3): 674.432 ng/mL and 622.199 ng/mL | Gamitrinib plasma concentration ([1]; 5 mg/kg IV, 15 min, animals 1-3): 128.663 ng/mL and 180.951 ng/mL | Gamitrinib plasma concentration ([1]; 5 mg/kg IV, 30 min, animals 1-3): 67.204 ng/mL and 106.381 ng/mL | Gamitrinib plasma concentration ([1]; 5 mg/kg IV, 60 min, animals 1-3): 65.903 ng/mL and 55.991 ng/mL | Gamitrinib plasma concentration ([1]; 5 mg/kg IV, 120 min, animals 1-3): 43.125 ng/mL and 29.914 ng/mL | Gamitrinib plasma concentration ([1]; 5 mg/kg IV, 240 min, animals 1-3): 34.776 ng/mL and 28.905 ng/mL | Gamitrinib plasma concentration ([1]; 5 mg/kg IV, 1440 min, animals 1-3): 10.511 ng/mL and 10.365 ng/mL | AUCINF [1, 7]: 957.472 ng·h/mL and 918.784 ng·h/mL | AUClast [1, 7]: 789.045 ng·h/mL and 709.112 ng·h/mL | CL [1, 7]: 87.035 mL/min/kg and 90.700 mL/min/kg | Cmax [1, 7]: 829.668 ng/mL and 1544.041 ng/mL | MRT [1, 7]: 5.411 h and 5.524 h | Vss [1, 7]: 60.052 L/kg and 78.131 L/kg | Vz [1, 7]: 83.678 L/kg and 110.085 L/kg | AUClast (AUC0-t) ([1]; 5 mg/kg IV, mean, n=3): 783.199 ng·h/mL | CL (clearance) ([1]; 5 mg/kg IV, mean, n=3): 85.656 ± 5.856 mL/min/kg and 85.65 ± 5.85 mL/min/kg | 17-AG plasma concentration after IV Gamitrinib ([1]; 30 min, animals 1-3): BLOQ | 17-AG plasma concentration after IV Gamitrinib ([1]; 60 min, animals 1-3): BLOQ | 17-AG plasma concentration after IV Gamitrinib ([1]; 120 min, animals 1-3): BLOQ | 17-AG plasma concentration after IV Gamitrinib ([1]; 240 min, animals 1-3): BLOQ | 17-AG plasma concentration after IV Gamitrinib ([1]; 1440 min, animals 1-3): BLOQ | concentration at 5 min ([1]; Sprague-Dawley, rat, plasma, intravenous, 5 mg/kg, 5 mg/kg IV, 5 min, animals 1-3): 526 ng/mL | concentration at 15 min ([1]; Sprague-Dawley, rat, plasma, intravenous, 5 mg/kg, 5 mg/kg IV, 15 min, animals 1-3): 212 ng/mL | concentration at 30 min ([1]; Sprague-Dawley, rat, plasma, intravenous, 5 mg/kg, 5 mg/kg IV, 30 min, animals 1-3): 114 ng/mL | concentration at 60 min ([1]; Sprague-Dawley, rat, plasma, intravenous, 5 mg/kg, 5 mg/kg IV, 60 min, animals 1-3): 71.4 ng/mL | concentration at 120 min ([1]; Sprague-Dawley, rat, plasma, intravenous, 5 mg/kg, 5 mg/kg IV, 120 min, animals 1-3): 46.7 ng/mL | concentration at 240 min ([1]; Sprague-Dawley, rat, plasma, intravenous, 5 mg/kg, 5 mg/kg IV, 240 min, animals 1-3): 36.8 ng/mL | concentration at 1440 min ([1]; Sprague-Dawley, rat, plasma, intravenous, 5 mg/kg, 5 mg/kg IV, 1440 min, animals 1-3): 11.9 ng/mL | half-life ([1]; Sprague-Dawley, rat, plasma, iv, 5 mg/kg, 5 mg/kg IV, Sprague-Dawley rats, individual animals Rat 1-3, read-out: t1/2 (converted)): 11.6 h | half-life ([1]; Sprague-Dawley, rat, plasma, iv, 5 mg/kg, 5 mg/kg IV, Sprague-Dawley rats, mean, n=3, read-out: t1/2 (terminal phase half-life) (converted)): 12.2 ± 1.55 h | AUC(0-inf) ([1]; Sprague-Dawley, rat, plasma, iv, 5 mg/kg, 5 mg/kg IV, individual animals Rat 1-3): 1050 ng·h/mL | AUC(0-t) ([1]; Sprague-Dawley, rat, plasma, iv, 5 mg/kg, 5 mg/kg IV, individual animals Rat 1-3, read-out: AUClast): 851 ng·h/mL | clearance ([1]; Sprague-Dawley, rat, plasma, iv, 5 mg/kg, 5 mg/kg IV, individual animals Rat 1-3, read-out: CL): 79.2 mL/min/kg | Cmax ([1]; Sprague-Dawley, rat, plasma, iv, 5 mg/kg, 5 mg/kg IV, individual animals Rat 1-3, read-out: Cmax): 1150 ng/mL | MRT ([1]; Sprague-Dawley, rat, plasma, iv, 5 mg/kg, 5 mg/kg IV, individual animals Rat 1-3, read-out: MRT): 5.54 h | Vd ([1]; Sprague-Dawley, rat, plasma, iv, 5 mg/kg, 5 mg/kg IV, individual animals Rat 1-3, read-out: Vss): 58.2 L/kg | Vd ([1]; Sprague-Dawley, rat, plasma, iv, 5 mg/kg, 5 mg/kg IV, individual animals Rat 1-3, read-out: Vz): 79.7 L/kg | AUC(0-inf) ([1]; Sprague-Dawley, rat, plasma, iv, 5 mg/kg, 5 mg/kg IV, mean, n=3): 976 ng·h/mL | AUC(0-t) ([1]; Sprague-Dawley, rat, plasma, iv, 5 mg/kg, 5 mg/kg IV, mean, n=3, read-out: AUClast (AUC0-t)): 783 ± 71.3 ng·h/mL | clearance ([1]; Sprague-Dawley, rat, plasma, iv, 5 mg/kg, 5 mg/kg IV, mean, n=3, read-out: CL (clearance)): 85.6 ± 5.8 mL/min/kg | Cmax ([1]; Sprague-Dawley, rat, plasma, iv, 5 mg/kg, 5 mg/kg IV, mean, n=3, read-out: Cmax): 1180 ng/mL | MRT ([1]; Sprague-Dawley, rat, plasma, iv, 5 mg/kg, 5 mg/kg IV, mean, n=3, read-out: MRT): 5.49 h | Vd ([1]; Sprague-Dawley, rat, plasma, iv, 5 mg/kg, 5 mg/kg IV, mean, n=3, read-out: Vss): 65.5 L/kg | Vd ([1]; Sprague-Dawley, rat, plasma, iv, 5 mg/kg, 5 mg/kg IV, mean, n=3, read-out: Vz): 91.2 L/kg | generation of 17-AG by Gamitrinib metabolism in rats ([1]; in words): did not generate detectable levels | IC50 [2]: 16 µM | inhibition at 10 µM [3]: 6.8 ± 2.2% | Cmax [4, 8]: 560 ± 404 ng/mL | AUC(0-t) [4, 8]: 1740 ± 713 ng·h/mL | Cmax [4, 9]: 1260 ± 556 ng/mL | AUC(0-t) [4, 9]: 3290 ± 1090 ng·h/mL | recovery [5]: 82.8 ± 3% | stability in human plasma [5]: 91.4% | therapeutically effective dose in mice [6]: 10 mg/kg
